#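 Values below derive from 48-hour exposures of cells grown in 96-well plates, with endpoints linearly interpolated between the two concentrations bracketing the appropriate inhibition level. The concentration for 50% growth inhibition is given as GI50. TGI is the concentration that stops growth completely.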
# Key:
# Experiment in all cases: inhibition of tumour cell growth, NCI panel, 48 h
# SF-295 CNS = tested on: SF-295 CNS
# PC-3 prostate = tested on: PC-3 prostate
# SF-539 CNS = tested on: SF-539 CNS
# ACHN renal = tested on: ACHN renal
# HCC-2998 colon = tested on: HCC-2998 colon
# HCT-116 colon = tested on: HCT-116 colon
# MOLT-4 leukemia = tested on: MOLT-4 leukemia
# COLO 205 colon = tested on: COLO 205 colon
# SNB-19 CNS = tested on: SNB-19 CNS
# OVCAR-5 ovarian = tested on: OVCAR-5 ovarian
# OVCAR-3 ovarian = tested on: OVCAR-3 ovarian
# SK-OV-3 ovarian = tested on: SK-OV-3 ovarian
# UACC-62 melanoma = tested on: UACC-62 melanoma
# LOX IMVI melanoma = tested on: LOX IMVI melanoma
# SF-268 CNS = tested on: SF-268 CNS
# HL-60(TB) leukemia = tested on: HL-60(TB) leukemia
# HOP-92 NSCLC = tested on: HOP-92 NSCLC
# TK-10 renal = tested on: TK-10 renal
# M14 melanoma = tested on: M14 melanoma
# KM12 colon = tested on: KM12 colon
# MDA-MB-231 breast = tested on: MDA-MB-231 breast
# 786-0 renal = tested on: 786-0 renal
# NCI-H460 lung = tested on: NCI-H460 lung
# IGROV1 ovarian = tested on: IGROV1 ovarian
# SN12C renal = tested on: SN12C renal
# OVCAR-8 ovarian = tested on: OVCAR-8 ovarian
# OVCAR-4 ovarian = tested on: OVCAR-4 ovarian
# HT29 colon = tested on: HT29 colon
# SW-620 colon = tested on: SW-620 colon
# HS 578T breast = tested on: HS 578T breast
# DU-145 prostate = tested on: DU-145 prostate
# SNB-75 CNS = tested on: SNB-75 CNS
# T-47D breast = tested on: T-47D breast
# RPMI-8226 leukemia = tested on: RPMI-8226 leukemia
# NCI-H522 lung = tested on: NCI-H522 lung
# K-562 leukemia = tested on: K-562 leukemia
# NCI-H226 lung = tested on: NCI-H226 lung
# UO-31 renal = tested on: UO-31 renal
# MCF7 breast = tested on: MCF7 breast
# SK-MEL-5 melanoma = tested on: SK-MEL-5 melanoma
# HOP-62 NSCLC = tested on: HOP-62 NSCLC
# SK-MEL-28 melanoma = tested on: SK-MEL-28 melanoma
# EKVX NSCLC = tested on: EKVX NSCLC
# A549 NSCLC = tested on: A549 NSCLC
# HCT-15 colon = tested on: HCT-15 colon
# UACC-257 melanoma = tested on: UACC-257 melanoma
# U251 CNS = tested on: U251 CNS
# CCRF-CEM leukemia = tested on: CCRF-CEM leukemia
# CAKI-1 renal = tested on: CAKI-1 renal
# BT-549 breast = tested on: BT-549 breast
# A498 renal = tested on: A498 renal
# SK-MEL-2 melanoma = tested on: SK-MEL-2 melanoma
# MDA-MB-435 = tested on: MDA-MB-435
# RXF 393 renal = tested on: RXF 393 renal
# NCI/ADR-RES ovarian = tested on: NCI/ADR-RES ovarian
structure (smiles),measurement,setting,value
Cc1nc2ccccn2c1NC(=O)NN1C(=O)CSC1c1ccc(Cl)cc1 (centres undefined),GI50,SF-295 CNS,> 100 µM
same,TGI,SF-295 CNS,> 100 µM
same,GI50,PC-3 prostate,> 100 µM
same,TGI,PC-3 prostate,> 100 µM
same,GI50,SF-539 CNS,> 100 µM
same,TGI,SF-539 CNS,> 100 µM
same,GI50,ACHN renal,> 100 µM
same,TGI,ACHN renal,> 100 µM
same,GI50,HCC-2998 colon,> 100 µM
same,TGI,HCC-2998 colon,> 100 µM
same,GI50,HCT-116 colon,> 100 µM
same,TGI,HCT-116 colon,> 100 µM
same,GI50,MOLT-4 leukemia,> 100 µM
same,TGI,MOLT-4 leukemia,> 100 µM
same,GI50,COLO 205 colon,> 100 µM
same,TGI,COLO 205 colon,> 100 µM
same,GI50,SNB-19 CNS,> 100 µM
same,TGI,SNB-19 CNS,> 100 µM
same,GI50,OVCAR-5 ovarian,> 100 µM
same,TGI,OVCAR-5 ovarian,> 100 µM
same,GI50,OVCAR-3 ovarian,> 100 µM
same,TGI,OVCAR-3 ovarian,> 100 µM
same,GI50,SK-OV-3 ovarian,> 100 µM
same,TGI,SK-OV-3 ovarian,> 100 µM
same,GI50,UACC-62 melanoma,> 100 µM
same,TGI,UACC-62 melanoma,> 100 µM
same,GI50,LOX IMVI melanoma,> 100 µM
same,TGI,LOX IMVI melanoma,> 100 µM
same,GI50,SF-268 CNS,> 100 µM
same,TGI,SF-268 CNS,> 100 µM
same,GI50,HL-60(TB) leukemia,> 100 µM
same,TGI,HL-60(TB) leukemia,> 100 µM
same,GI50,HOP-92 NSCLC,> 100 µM
same,TGI,HOP-92 NSCLC,> 100 µM
same,GI50,TK-10 renal,> 100 µM
same,TGI,TK-10 renal,> 100 µM
same,GI50,M14 melanoma,> 100 µM
same,TGI,M14 melanoma,> 100 µM
same,GI50,KM12 colon,> 100 µM
same,TGI,KM12 colon,> 100 µM
same,GI50,MDA-MB-231 breast,> 100 µM
same,TGI,MDA-MB-231 breast,> 100 µM
same,GI50,786-0 renal,> 100 µM
same,TGI,786-0 renal,> 100 µM
same,GI50,NCI-H460 lung,> 100 µM
same,TGI,NCI-H460 lung,> 100 µM
same,GI50,IGROV1 ovarian,> 100 µM
same,TGI,IGROV1 ovarian,> 100 µM
same,GI50,SN12C renal,> 100 µM
same,TGI,SN12C renal,> 100 µM
same,GI50,OVCAR-8 ovarian,> 100 µM
same,TGI,OVCAR-8 ovarian,> 100 µM
same,GI50,OVCAR-4 ovarian,> 100 µM
same,TGI,OVCAR-4 ovarian,> 100 µM
same,GI50,HT29 colon,> 100 µM
same,TGI,HT29 colon,> 100 µM
same,GI50,SW-620 colon,> 100 µM
same,TGI,SW-620 colon,> 100 µM
same,GI50,HS 578T breast,> 100 µM
same,TGI,HS 578T breast,> 100 µM
same,GI50,DU-145 prostate,> 100 µM
same,TGI,DU-145 prostate,> 100 µM
same,GI50,SNB-75 CNS,> 100 µM
same,TGI,SNB-75 CNS,> 100 µM
same,GI50,T-47D breast,> 100 µM
same,TGI,T-47D breast,> 100 µM
same,GI50,RPMI-8226 leukemia,> 100 µM
same,TGI,RPMI-8226 leukemia,> 100 µM
same,GI50,NCI-H522 lung,> 100 µM
same,TGI,NCI-H522 lung,> 100 µM
same,GI50,K-562 leukemia,> 100 µM
same,TGI,K-562 leukemia,> 100 µM
same,GI50,NCI-H226 lung,> 100 µM
same,TGI,NCI-H226 lung,> 100 µM
same,GI50,UO-31 renal,> 100 µM
same,TGI,UO-31 renal,> 100 µM
same,GI50,MCF7 breast,> 100 µM
same,TGI,MCF7 breast,> 100 µM
same,GI50,SK-MEL-5 melanoma,> 100 µM
same,TGI,SK-MEL-5 melanoma,> 100 µM
same,GI50,HOP-62 NSCLC,> 100 µM
same,TGI,HOP-62 NSCLC,> 100 µM
same,GI50,SK-MEL-28 melanoma,> 100 µM
same,TGI,SK-MEL-28 melanoma,> 100 µM
same,GI50,EKVX NSCLC,> 100 µM
same,TGI,EKVX NSCLC,> 100 µM
same,GI50,A549 NSCLC,> 100 µM
same,TGI,A549 NSCLC,> 100 µM
same,GI50,HCT-15 colon,> 100 µM
same,TGI,HCT-15 colon,> 100 µM
same,GI50,UACC-257 melanoma,> 100 µM
same,TGI,UACC-257 melanoma,> 100 µM
same,GI50,U251 CNS,> 100 µM
same,TGI,U251 CNS,> 100 µM
same,TGI,CCRF-CEM leukemia,0.012 µM
same,GI50,CAKI-1 renal,> 100 µM
same,TGI,CAKI-1 renal,> 100 µM
same,GI50,BT-549 breast,> 100 µM
same,TGI,BT-549 breast,> 100 µM
same,GI50,A498 renal,> 100 µM
same,TGI,A498 renal,> 100 µM
same,GI50,SK-MEL-2 melanoma,> 100 µM
same,TGI,SK-MEL-2 melanoma,> 100 µM
same,GI50,MDA-MB-435,> 100 µM
same,TGI,MDA-MB-435,> 100 µM
same,GI50,RXF 393 renal,> 100 µM
same,TGI,RXF 393 renal,> 100 µM
same,GI50,NCI/ADR-RES ovarian,> 100 µM
same,TGI,NCI/ADR-RES ovarian,> 100 µM
